In patent publication US12077503B2, “Substituted cyclic amides and their use as herbicides” (FMC CORPORATION, priority 2015, dated 2024):
Read-outs that look alike come from different tables or passages of the source.

Legend:
Experiment in all cases: Test A postemergence
Format in all cases: in vivo
Kochia (Kochia scoparia) = details: Bassia scoparia, post-emergence, 240 h; for pest or weed control at 125 g/ha: 125 g ai/ha; for pest or weed control at 125 g/ha / pest or weed control at 500 g/ha: postemergence; for pest or weed control at 31 g/ha: Postemergence, 31 g ai/ha, visual injury after approx. 10 d, 0 no effect, 100 complete control; for pest or weed control at 31 g/ha / pest or weed control at 500 g/ha: 0 to 100 scale; for pest or weed control at 500 g/ha: 500 g ai/ha, 0 is no effect, 100 is complete control, read-out: Kochia plant response rating
Outline: (§1)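 Preemergence directed soil spray on seeded pots, or postemergence application to plants 2–10 cm, one- to two-leaf. Solvent mixture non-phytotoxic, with surfactant. Scored ~10 d later, visually, 0–100 vs untreated.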

[1] = tested on: blackgrass (Alopecurus myosuroides); details: Alopecurus myosuroides, post-emergence, 240 h; for pest or weed control at 125 g/ha: 125 g ai/ha; for pest or weed control at 125 g/ha / pest or weed control at 500 g/ha: postemergence; for pest or weed control at 31 g/ha: Postemergence, 31 g ai/ha, visual injury after approx. 10 d, 0 no effect, 100 complete control; for pest or weed control at 31 g/ha / pest or weed control at 500 g/ha: 0 to 100 scale; for pest or weed control at 500 g/ha: 500 g ai/ha, 0 is no effect, 100 is complete control, read-out: Blackgrass plant response rating
Outline: as §1

corn (Zea mays) = details: Zea mays, post-emergence, 240 h; for Corn plant response rating (crop injury, 0 = no effect, 100 = complete kill) at 125 g/ha / plant injury at 125 g/ha: 125 g ai/ha; for Corn plant response rating (crop injury, 0 = no effect, 100 = complete kill) at 125 g/ha / plant injury at 125 g/ha / plant injury at 500 g/ha: postemergence; for Corn plant response rating (crop injury, 0 = no effect, 100 = complete kill) at 125 g/ha: visual injury after approximately 10 d, 0 to 100 scale (0 no effect, 100 complete control); for Corn plant response rating (crop injury, 0 = no effect, 100 = complete kill) at 31 g/ha: Postemergence, 31 g ai/ha, visual injury after approx. 10 d, 100 complete control; for Corn plant response rating (crop injury, 0 = no effect, 100 = complete kill) at 31 g/ha / plant injury at 500 g/ha: 0 to 100 scale; for plant injury at 500 g/ha: 500 g ai/ha, 0 is no effect, 100 is complete control, read-out: Corn plant response rating
Outline: as §1

[2] = tested on: pigweed (Amaranthus retroflexus); details: Amaranthus retroflexus, post-emergence, 240 h; for pest or weed control at 125 g/ha: 125 g ai/ha; for pest or weed control at 125 g/ha / pest or weed control at 500 g/ha: postemergence; for pest or weed control at 31 g/ha: Postemergence, 31 g ai/ha, visual injury after approx. 10 d, 0 no effect, 100 complete control; for pest or weed control at 31 g/ha / pest or weed control at 500 g/ha: 0 to 100 scale; for pest or weed control at 500 g/ha: 500 g ai/ha, 0 is no effect, 100 is complete control, read-out: Pigweed plant response rating
Outline: as §1

[3] = tested on: ragweed (common ragweed, Ambrosia elatior); details: Ambrosia artemisiifolia, post-emergence, 240 h; for pest or weed control at 125 g/ha: 125 g ai/ha; for pest or weed control at 125 g/ha / pest or weed control at 500 g/ha: postemergence; for pest or weed control at 31 g/ha: Postemergence, 31 g ai/ha, visual injury after approx. 10 d, 0 no effect, 100 complete control; for pest or weed control at 31 g/ha / pest or weed control at 500 g/ha: 0 to 100 scale; for pest or weed control at 500 g/ha: 500 g ai/ha, 0 is no effect, 100 is complete control, read-out: Ragweed plant response rating
Outline: as §1

[4] = tested on: ryegrass, Italian (Italian ryegrass, Lolium multiflorum); details: Lolium multiflorum, post-emergence, 240 h; for pest or weed control at 125 g/ha: 125 g ai/ha; for pest or weed control at 125 g/ha / pest or weed control at 500 g/ha: postemergence; for pest or weed control at 31 g/ha: Postemergence, 31 g ai/ha, visual injury after approx. 10 d, 0 no effect, 100 complete control; for pest or weed control at 31 g/ha / pest or weed control at 500 g/ha: 0 to 100 scale; for pest or weed control at 500 g/ha: 500 g ai/ha, 0 is no effect, 100 is complete control, read-out: Ryegrass, Italian plant response rating
Outline: as §1

[5] = visual injury after approximately 10 d, 0 to 100 scale (0 no effect, 100 complete control), read-out: Plant response rating, Kochia
[6] = read-out: Plant response rating, Kochia
[7] = visual injury after approximately 10 d, 0 to 100 scale (0 no effect, 100 complete control), read-out: Plant response rating, Blackgrass
[8] = read-out: Plant response rating, Blackgrass
[9] = visual injury after approximately 10 d, 0 to 100 scale (0 no effect, 100 complete control), read-out: Plant response rating, Pigweed
[10] = read-out: Plant response rating, Pigweed
[11] = visual injury after approximately 10 d, 0 to 100 scale (0 no effect, 100 complete control), read-out: Plant response rating, Ragweed
[12] = read-out: Plant response rating, Ragweed
[13] = visual injury after approximately 10 d, 0 to 100 scale (0 no effect, 100 complete control), read-out: Plant response rating, Ryegrass, Italian
[14] = read-out: Plant response rating, Ryegrass, Italian
[15] = visual injury rating after approximately 10 d, read-out: Kochia plant response rating (0 to 100 scale, 0 no effect, 100 complete control)
[16] = visual injury rating after approximately 10 d, read-out: Blackgrass plant response rating (0 to 100 scale, 0 no effect, 100 complete control)
[17] = visual injury rating after approximately 10 d, read-out: Corn plant response rating (0 to 100 scale, 0 no effect, 100 complete control)
[18] = visual injury rating after approximately 10 d, read-out: Pigweed plant response rating (0 to 100 scale, 0 no effect, 100 complete control)
[19] = visual injury rating after approximately 10 d, read-out: Ragweed plant response rating (0 to 100 scale, 0 no effect, 100 complete control)
[20] = visual injury rating after approximately 10 d, read-out: Ryegrass, Italian plant response rating (0 to 100 scale, 0 no effect, 100 complete control)
[21] = visual injury vs untreated controls after approx. 10 d, 0 = no effect, 100 = complete control, read-out: Kochia plant response rating (0 to 100 scale)
[22] = visual injury vs untreated controls after approx. 10 d, 0 = no effect, 100 = complete control, read-out: Blackgrass plant response rating (0 to 100 scale)
[23] = visual injury vs untreated controls after approx. 10 d, 0 = no effect, 100 = complete control, read-out: Corn plant response rating (0 to 100 scale)
[24] = visual injury vs untreated controls after approx. 10 d, 0 = no effect, 100 = complete control, read-out: Pigweed plant response rating (0 to 100 scale)
[25] = visual injury vs untreated controls after approx. 10 d, 0 = no effect, 100 = complete control, read-out: Ragweed plant response rating (0 to 100 scale)
[26] = visual injury vs untreated controls after approx. 10 d, 0 = no effect, 100 = complete control, read-out: Ryegrass, Italian plant response rating (0 to 100 scale)

Row | Compound | pest or weed control at 125 g/ha (Kochia (Kochia scoparia); [5]) | pest or weed control at 31 g/ha (Kochia (Kochia scoparia); [6]) | pest or weed control at 125 g/ha [1, 7] | pest or weed control at 31 g/ha [1, 8] | Corn plant response rating (crop injury, 0 = no effect, 100 = complete kill) at 125 g/ha (corn (Zea mays)) | Corn plant response rating (crop injury, 0 = no effect, 100 = complete kill) at 31 g/ha (corn (Zea mays)) | pest or weed control at 125 g/ha [2, 9] | pest or weed control at 31 g/ha [2, 10] | pest or weed control at 125 g/ha [3, 11] | pest or weed control at 31 g/ha [3, 12] | pest or weed control at 125 g/ha [4, 13] | pest or weed control at 31 g/ha [4, 14] | pest or weed control at 125 g/ha (Kochia (Kochia scoparia); [15]) | pest or weed control at 125 g/ha [1, 16] | plant injury at 125 g/ha (corn (Zea mays); [17]) | pest or weed control at 125 g/ha [2, 18] | pest or weed control at 125 g/ha [3, 19] | pest or weed control at 125 g/ha [4, 20] | other results
1 | CN1CC[C@@H](c2cccc(C(F)(F)F)c2)[C@H](C(=O)Nc2ccccc2F)C1=O [Compound 794] | 0% | 0% | 0% | 0% | 0% | 0% | 0% | 0% | 0% | 0% | 0% | 0% | – | – | – | – | – | – | –
2 | CSc1ccccc1NC(=O)[C@H]1C(=O)N(C)C[C@@H]1c1cc(C)c(C)c(C)c1 [Compound 798] | 0% | 0% | 40% | 0% | 40% | 0% | 20% | 0% | 0% | 0% | 40% | 0% | – | – | – | – | – | – | –
3 | CSc1ccccc1NC(=O)[C@H]1C(=O)N(C)C[C@@H]1c1ccc(C(F)F)cc1 [Compound 799] | 30% | 0% | 30% | 0% | 20% | 0% | 20% | 0% | 0% | 0% | 20% | 0% | – | – | – | – | – | – | –
4 | Cc1cc(F)cc([C@H]2CN(C)C(=O)[C@@H]2C(=O)Nc2ccc(F)c(F)c2F)c1 [Compound 801] | 40% | 20% | 60% | 20% | 60% | 20% | 30% | 30% | 50% | 0% | 60% | 0% | – | – | – | – | – | – | –
5 | CN1C[C@H](c2ccc(C(F)F)cc2)[C@@H](C(=O)Nc2ccccc2F)C1=O [Compound 803] | – | 50% | – | 20% | – | 20% | – | 30% | – | 30% | – | 0% | 70% | 50% | 90% | 40% | 30% | 40% | –
6 | CN1CC[C@H](c2cccc(OC(F)(F)F)c2)[C@@H](C(=O)Nc2cccc(F)c2F)C1=O [Compound 807] | – | 0% | – | 0% | – | 0% | – | 0% | – | 0% | – | 0% | 0% | 0% | 70% | 0% | 0% | 0% | –
7 | CN1CC[C@H](c2cccc(OC(F)(F)F)c2)[C@@H](C(=O)Nc2cccc(Cl)c2F)C1=O [Compound 810] | – | 0% | – | 0% | – | 0% | – | 0% | – | 0% | – | 0% | 0% | 0% | 0% | 0% | 0% | 0% | –
8 | N#Cc1cc([C@H]2CNC(=O)[C@]2(O)C(=O)Nc2ccccc2F)ccc1F [Compound 1200] | – | – | – | – | – | – | – | – | – | – | – | – | – | – | – | – | – | – | pest or weed control at 125 g/ha (Kochia (Kochia scoparia); [21]): 0%; pest or weed control at 500 g/ha (Kochia (Kochia scoparia)): 0%; pest or weed control at 125 g/ha [1, 22]: 0%; pest or weed control at 500 g/ha [1]: 0%; plant injury at 125 g/ha (corn (Zea mays); [23]): 0%; plant injury at 500 g/ha (corn (Zea mays)): 0%; pest or weed control at 125 g/ha [2, 24]: 0%; pest or weed control at 500 g/ha [2]: 0%; pest or weed control at 125 g/ha [3, 25]: 0%; pest or weed control at 500 g/ha [3]: 0%; pest or weed control at 125 g/ha [4, 26]: 0%; pest or weed control at 500 g/ha [4]: 0%
9 | CSc1ccccc1NC(=O)[C@H]1C(=O)NC[C@@H]1c1ccc(F)c(C#N)c1 [Compound 1201] | – | – | – | – | – | – | – | – | – | – | – | – | – | – | – | – | – | – | pest or weed control at 125 g/ha (Kochia (Kochia scoparia); [21]): 40%; pest or weed control at 500 g/ha (Kochia (Kochia scoparia)): 70%; pest or weed control at 125 g/ha [1, 22]: 0%; pest or weed control at 500 g/ha [1]: 0%; plant injury at 125 g/ha (corn (Zea mays); [23]): 0%; plant injury at 500 g/ha (corn (Zea mays)): 0%; pest or weed control at 125 g/ha [2, 24]: 20%; pest or weed control at 500 g/ha [2]: 60%; pest or weed control at 125 g/ha [3, 25]: 0%; pest or weed control at 500 g/ha [3]: 30%; pest or weed control at 125 g/ha [4, 26]: 0%; pest or weed control at 500 g/ha [4]: 0%
